In one experiment the target is T1, MMP-2 (Homo sapiens, UniProt P08253).
T1 sequence (P08253 110-660): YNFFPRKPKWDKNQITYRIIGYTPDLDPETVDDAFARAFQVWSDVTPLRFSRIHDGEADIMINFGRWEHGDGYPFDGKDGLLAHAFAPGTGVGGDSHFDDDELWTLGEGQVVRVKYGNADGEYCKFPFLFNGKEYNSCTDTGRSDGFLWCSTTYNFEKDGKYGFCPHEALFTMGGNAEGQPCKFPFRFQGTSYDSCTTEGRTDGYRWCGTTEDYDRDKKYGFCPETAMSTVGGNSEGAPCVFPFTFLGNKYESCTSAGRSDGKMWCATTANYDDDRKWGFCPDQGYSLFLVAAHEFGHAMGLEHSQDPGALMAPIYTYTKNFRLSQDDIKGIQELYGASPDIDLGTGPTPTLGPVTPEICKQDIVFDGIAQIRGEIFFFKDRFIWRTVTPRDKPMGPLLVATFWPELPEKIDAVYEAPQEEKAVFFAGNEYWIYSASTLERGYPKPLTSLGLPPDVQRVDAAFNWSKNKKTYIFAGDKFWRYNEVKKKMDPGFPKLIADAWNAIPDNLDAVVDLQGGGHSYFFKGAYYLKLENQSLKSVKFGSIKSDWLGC
As to the kind of experiment: MMP inhibiting activity, fluorescence assay. In kind it is biochemical. As to conditions: read-out: Enzyme inhibiting constant IC50 MMP-2. On the procedure: (§1) Inhibitory activities of all the enzymes were measured similarly to the MMP-2 activity measuring method shown below. Prior to measuring, proMMP-2 was treated with 1 mM p-aminophenyl mercuricacetate at 37° C. for 45 minutes to activate it. The ProMMP-9 was activated to an enzyme with MMP-3, and stored at −80° C. until used.
(§2) MMP activities were measured by fluorescence assay by changing a microtiter plate formate according to the reported method (Knight, C. G., Willenbrock, F., Murphy, G. A., FEBS Lett. 1992, 296, 263-266). On a dynatech MicroFLUOR plate, a buffer solution comprising 50 Mm Tris-HCl pH 7.5, 10 mM CaCl2, 0.15 M NaCl, 0.05% Brij, and 1-8 μM of a substrate (Mca-Pro-Leu-Gly-Leu-Dpa-Ala-Arg-NH2), and various concentrations of inhibitors were introduced, and it was reacted with activated enzymes at 37° C. for 20-30 minutes. Reaction was terminated by putting the reactant in 50 mM EDTA, and then fluorescence was measured with a spectrofluorometer attached to a microplate reader (λex 328 nm, λ em 393 nm). The inhibiting activity degree was indicated by an IC50 value, which is a concentration inhibiting activity by 50% compared to the control.

The next experiment has as its target MMP-13 (Homo sapiens, UniProt P45452). Briefly: MMP inhibiting activity, fluorescence assay. It is filed as biochemical. As to conditions: read-out: Enzyme inhibiting constant IC50 MMP-13. On the procedure: as §1, §2
The target of a further experiment is T2, MMP-1 (Homo sapiens, UniProt P03956).
T2 sequence (P03956 100-469): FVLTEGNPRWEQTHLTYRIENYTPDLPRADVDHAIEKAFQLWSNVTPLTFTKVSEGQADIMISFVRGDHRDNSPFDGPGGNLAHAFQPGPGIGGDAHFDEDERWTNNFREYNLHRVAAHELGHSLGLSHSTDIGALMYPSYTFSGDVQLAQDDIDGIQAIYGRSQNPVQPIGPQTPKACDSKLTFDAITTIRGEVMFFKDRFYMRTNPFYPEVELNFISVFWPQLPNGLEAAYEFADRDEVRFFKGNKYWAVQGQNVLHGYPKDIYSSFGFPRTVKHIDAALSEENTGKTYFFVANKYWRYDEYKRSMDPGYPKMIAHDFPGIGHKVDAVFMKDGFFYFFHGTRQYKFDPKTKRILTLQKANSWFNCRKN
As to the kind of experiment: MMP inhibiting activity, fluorescence assay. In kind it is biochemical. As to conditions: read-out: Enzyme inhibiting constant IC50 MMP-1. On the procedure: as §1, §2

Another experiment concerns the target MMP-14 (Homo sapiens, UniProt P50281). As to the kind of experiment: MMP inhibiting activity, fluorescence assay. It is filed as biochemical. Conditions: read-out: Enzyme inhibiting constant IC50 MMP-14. As to the method:
as §1, §2

Another experiment concerns the target MMP-9 (Homo sapiens, UniProt P14780). As to the kind of experiment: MMP inhibiting activity, fluorescence assay. Conditions: read-out: Enzyme inhibiting constant IC50 MMP-9. In kind it is biochemical. On the procedure:
as §1, §2

The test system of experiment [1] is HUVEC (human umbilical vein endothelial cell) cells. Briefly: Tube formation activity on matrigel. In kind it is cell-based. Also noted: key: −: control; ±: tube almost resembles control; +: inhibition; ++: significant inhibition; +++: complete inhibition. As to conditions: 16-24 hours. As to the method: In a culture flask previously coated with gelatin, HUVEC (human umbilical vein endothelial cell) cells cultured with a M199 medium (containing 20% FBS, 3 ng/ml bFGF, 100 μg/ml heparin) were treated with trypsin/EDTA, and then number of cells are counted so that number of cells may be 2×10^4 cells/well in a 96-well plate previously coated with matrigel. Samples were then added and cultured in a CO2 culture medium at 37° C. for 16-24 hours.

pIC50: −log10 of the molar value.

Sequence of MMP-9 (P14780 107-707 limits assumed, species assumed): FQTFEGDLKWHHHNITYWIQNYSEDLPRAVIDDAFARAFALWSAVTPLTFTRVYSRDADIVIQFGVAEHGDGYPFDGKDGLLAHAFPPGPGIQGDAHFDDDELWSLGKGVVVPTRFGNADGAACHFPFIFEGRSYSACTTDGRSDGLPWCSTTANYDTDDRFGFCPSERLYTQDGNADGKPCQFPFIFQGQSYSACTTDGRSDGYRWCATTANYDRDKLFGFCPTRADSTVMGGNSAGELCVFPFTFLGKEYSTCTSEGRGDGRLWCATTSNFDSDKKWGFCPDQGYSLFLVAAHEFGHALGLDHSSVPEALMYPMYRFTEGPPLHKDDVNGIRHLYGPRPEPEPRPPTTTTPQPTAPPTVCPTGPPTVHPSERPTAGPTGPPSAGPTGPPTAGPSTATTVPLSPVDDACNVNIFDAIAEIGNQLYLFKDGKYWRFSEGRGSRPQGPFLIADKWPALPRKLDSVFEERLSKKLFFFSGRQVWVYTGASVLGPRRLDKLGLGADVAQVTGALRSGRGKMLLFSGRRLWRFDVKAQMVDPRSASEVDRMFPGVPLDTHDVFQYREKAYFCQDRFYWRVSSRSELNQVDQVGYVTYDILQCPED

A word on the pIC50: it is the IC50 on a negative log10 scale, so that one unit is a factor of ten. In the case of “4-Benzyl-1-(4-methoxy-benzenesulfonyl)-5-oxo-piperazine-2-hydroxamate [Example 7]”, the pIC50 on MMP-2 was 8.15; at MMP-13, 7.74; on MMP-1 it was 7.28; on MMP-14, 7.44; at MMP-9 it was 7.60. Further, the “Tube Formation” value in experiment [1] (concentration 5 μM) was “±”; in experiment [1] (concentration 50 μM), “+”.

Take `COc1ccc(S(=O)(=O)N2CC(=O)NCC2C(=O)NO)cc1` (stereo not drawn) [Example 5, 1-(4-Methoxy-benzenesulfonyl)-5-oxo-piperazine-2-hydroxamate]: the values for the pIC50 at MMP-2, on MMP-14 and at MMP-9 were 8.40, 7.55 and 7.91, respectively. Further, the results for the “Tube Formation” value in experiment [1] (concentration 5 μM), in experiment [1] (concentration 50 μM) and in experiment [1] (concentration 100 μM) were “±”, “+” and “++”, respectively.

On to `CCCCCCCCN1CC(C(=O)NO)N(S(=O)(=O)c2ccc(-c3ccc(Br)cc3)cc2)CC1=O` (stereo not drawn) [Example 32, 1-(4′-Bromo-biphenyl-4-sulfonyl)-4-octyl-5-oxo-piperazine-2-hydroxamate], for which the pIC50 on MMP-2 was 8.70; on MMP-13, 8.15; at MMP-1, 7.80; at MMP-9, 8.89. Further, the figures for the “Tube Formation” value in experiment [1] (concentration 5 μM), in experiment [1] (concentration 50 μM) and in experiment [1] (concentration 100 μM) were “++”, “+++” and “+++”, respectively.

In the case of `CCCCCCN1CC(C(=O)O)N(S(=O)(=O)c2ccc(-c3ccc(Br)cc3)cc2)CC1=O` (stereo not drawn) [Example 45, 1-(4′-Bromo-biphenyl-4-sulfonyl)-4-hexyl-5-oxo-piperazine-2-carboxylic acid], the pIC50 on MMP-2 is 7.96; at MMP-13, 7.09; at MMP-1, 7.02. Further, the “Tube Formation” value in experiment [1] (concentration 0.5 μM), in experiment [1] (concentration 5 μM) and in experiment [1] (concentration 50 μM) was “++” in each case.

As to `CCCCCCCCCCN1CC(C(=O)O)N(S(=O)(=O)c2ccc(-c3ccc(Br)cc3)cc2)CC1=O` (stereo not drawn) [Example 47, 1-(4′-Bromo-biphenyl-4-sulfonyl)-4-decyl-5-oxo-piperazine-2-carboxylic acid], the values for the pIC50 on MMP-2, at MMP-13 and on MMP-1 were 6.85, 5.61 and 5.27, respectively. The “Tube Formation” value is “++” in experiment [1] (concentration 0.5 μM), “++” in experiment [1] (concentration 5 μM) and “+++” in experiment [1] (concentration 50 μM).

As to `CCCCN1CC(C(=O)O)N(S(=O)(=O)c2ccc(-c3ccc(Br)cc3)cc2)CC1=O` (stereo not drawn) [Example 49, 1-(4′-Bromo-biphenyl-4-sulfonyl)-4-butyl-5-oxo-piperazine-2-carboxylic acid], the pIC50 is 8.05 on MMP-2, 5.95 at MMP-13 and 6.94 on MMP-1. The “Tube Formation” value in experiment [1] (concentration 0.5 μM) is “±”; in experiment [1] (concentration 5 μM), “++”; in experiment [1] (concentration 50 μM), “++”.

In the case of `CCCCCCCCN1CC(C(=O)O)N(S(=O)(=O)c2ccc(NC(=O)c3ccc(Cl)cc3)cc2)CC1=O` (stereo not drawn) [Example 60, 1-[4-(4-chloro-benzoylamino)-benzenesulfonyl]-4-octyl-5-oxo-piperazine-2-carboxylic acid], the pIC50 at MMP-2 was 8.52; on MMP-13, 7.62; on MMP-1, 7.74; at MMP-9, 8.49. The figures for the “Tube Formation” value in experiment [1] (concentration 0.5 μM), in experiment [1] (concentration 5 μM) and in experiment [1] (concentration 50 μM) were “+”, “++” and “++”, respectively.

The values are drawn from US7223751B2, “Sulfonamide derivatives, intermediate thereof, its preparation methods, and pharmaceutical composition comprising the same” (Kolon Ind. Inc., priority 2001, dated 2007).
